Experimental data published in patent publication US5134150A, “Inhibition of the 5-lipoxygenase pathway” (priority 1989, dated 1992).
Read-outs that look alike come from different tables or passages of the source.

Experiments:
[1] = test system: Infiltration of Polymorphonuclear Leukocytes into Sites of Carrageenan-Induced Inflammation; assay: Mouse carrageenan peritonitis (PMN infiltration); assay type: in vivo, mouse (male Balb/c); settings: for PMN infiltration, result in words: carrageenan peritonitis, mice
From the text: (§1) In the following Examples where mice were used, they were male Balb/c mice (20-28 g), and where rats were used, they were male Lewis rats (180-210 g). All mice and rats were obtained from Charles River Breeding Laboratories, Kingston, N.Y. Within a single experiment, mice and rats were sex and age matched.
(§2) The compounds of Formula (I) were used either as the free base or in the appropriate salt form. Levamisole was used as the hydrochloride salt. The compounds were homogenized in 0.5% tragacanth. Compounds were administered by gavage at the indicated dose in a final volume of 10 ml/kg. Nordihydroguaiaretic acid (NDGA) was solubilized in dimethylacetamide and diluted with olive oil for subcutaneous administration.
Mice were pretreated with either the test compound or vehicle one hour before the intraperitoneal injection of a 1.0% carrageenan suspension in saline (0.2 ml/mouse). Mice were sacrificed by cervical dislocation two hours after injection, and 3.0 ml of phosphate buffered saline, without Ca^++ or Mg^++, was injected into the peritoneum. Following massage, a 2.0 ml aliquot of the lavage fluid was removed, and the total cell count determined on a Coulter counter and differential cell count determined by microscopic examination of Giesma-stained slides.

[2] = test system: Arachidonic Acid-Induced Inflammation of the Mouse Ear; assay: Arachidonic acid-induced mouse ear inflammation; assay type: in vivo, mouse (male Balb/c); settings: for inhibition in vivo at 50 mg/kg: Mus musculus, 1 h, Table 7A, read-out: % Inhibition of Ear Swelling
From the text: as §1, §2
Arachidonic acid in acetone ([…]) was applied to the inner surface of the left ear. The thickness of both ears was then measured with a dial micrometer one hour after treatment, and the data were expressed as the change in thickness (10^-3 cm) between treated and untreated ears.
Test compounds were given orally in 0.5% tragacanth at the times indicated in the text prior to the topical application of arachidonic acid.
Parenteral administration of compound was accomplished by subcutaneous injection of solution as indicated.

[3] = test system: 5-lipoxygenase and LTA4 synthetase; assay: Di-HETE / LTB4 production by high speed supernatant of RBL-1 cells; assay type: biochemical; settings: RBL-1 high speed supernatant; Table 9A; read-out: 5-LO IC50 (LTB4 production)
Procedure: For in vitro experiments, compounds were dissolved at appropriate concentrations in ethanol or DMSO (dimethylsulfoxide) (final concentration≤1.0%) and then diluted to final concentrations using the buffers indicated in the text.
The activities of these enzymes in extracts of RBL-1 cells were assayed using the method of Jakschik and Lee, Nature, 287, 51-52 (1980). RBL-1 cells were obtained from the American Type Culture Collection (#CRL 1378) and were grown at 37° C. (5% CO2 in air) in spinner culture in MEM supplemented with 10% heat inactivated fetal calf serum. Harvested cells were washed with 50 mM sodium phosphate buffer, pH 7.0, containing 1 mM EDTA and 0.1% gelatin, resuspended in fresh buffer (5×10^7 cells/ml) and disrupted by nitrogen cavitation using the Parr bomb at 750 psi for 10 min. The broken cell extract was then centrifuged at 10,000× g for 20 minutes (min) and the supernatant centrifuged at 100,000 xIg for 60 min. Aliquots (0.25 mls) of the supernatant were preincubated with or without drugs for 10 min, after which 10 μl CaCl2 (50 mM) was added and the reaction was initiated with 2.5 μl of 2.5 mM arachidonic acid-1-^14 C (final concentration was 25 μM; specific activity 20,000 dpm/nmole). After incubation for 3 min at 37° C., the reaction was terminated by addition of 2 volumes (0.5 ml) ice cold acetone and the sample was allowed to deproteinize on ice for 10 min prior to centrifugation at 1,000× g for 10 min. The deproteinized supernatant was adjusted to pH 3.5 with 2N formic acid and extracted with 2 volumes of ice cold ethyl acetate. The extracted samples were dried under argon, redissolved in ethyl acetate and applied to Whatman LK5D thin layer chromatography (TLC) plates which were developed using the A-9 solvent system [organic phase of ethyl acetate: 2,2,5-trimethylpentane:acetic acid: water (110:50:20:10)] described by Hamberg and Samuelsson, J. Biol. Chem., 241, 257-263 (1966). Arachidonic acid, 5-HETE, LTB4 and PGD2 were quantified with a Berthold LB 2832 autoscanner.
The 5-lipoxygenase and LTA4 synthetase activities were further studied under the following conditions. An additional centrifugation of the RBL-1 supernatant was run at 100,000× g for 60 min, to remove the particulate cyclooxygenase activity. Sample incubation was done under conditions similar to those described above, i.e., 2 mM CaCl2 and […] arachidonic acid-1-^14 C, however, with an incubation time of 5 min at 5° C. Under these conditions, only the 5-lipoxygenase pathway metabolites were detectable. The 5-HETE and di-HETEs were formed at a linear rate, and substantial amounts of the arachidonic acid-1-^14 C substrate were utilized.

[4] = test system: LTB4 synthesis by peritoneal exudate cells; assay: Ex vivo production of LTB4 from peritoneal exudate cells of drug-treated mice; assay type: in vivo, mouse; settings: for inhibition at 50 mg/kg: Mus musculus, po, 50 mg/kg p.o.
From the text: In the following Examples where mice were used, they were male Balb/c mice (20-28 g), and where rats were used, they were male Lewis rats (180-210 g). All mice and rats were obtained from Charles River Breeding Laboratories, Kingston, N.Y. Within a single experiment, mice and rats were sex and age matched. Auranofin, phenidone, indomethacin, naproxen, and ibuprofen were each used as the free base. The compounds of Formula (I) were used either as the free base or in the appropriate salt form. Levamisole was used as the hydrochloride salt. […] Nordihydroguaiaretic acid (NDGA) was solubilized in dimethylacetamide and diluted with olive oil for subcutaneous administration. Carrageenan-induced peritoneal exudate cells from normal or drug-treated mice were washed and suspended in 2.2 ml of phosphate buffered saline. […] The cell preparation was centrifuged at 1500 rpm for 10 min and the supernatant was extracted using a C-18 silica column. […] A tetrahydrofuran, methanol, water, acetic acid (25:30:45: 0.1) solvent system, adjusted to pH 5.5 with ammonium hydroxide, was used at a flow rate of 0.7 ml/min. Cell derived LTB4 was quantified utilizing standard curves constructed with known amounts of synthetic LTB4.

Structure (SMILES) | inhibition in vivo at 50 mg/kg ([2]; 50 mg/kg s.c. or i.p.) [%] | IC50 [3] [µM] | other results
CC(=O)OC[C@H]1O[C@@H]([S-])[C@H](OC(C)=O)[C@@H](OC(C)=O)[C@@H]1OC(C)=O.CCP(CC)CC.[Au+] [Auranofin] |  |  | % Change (PMN) ([1]; 2 mg Au/kg, p.o., Table 3): -6%; PMN (Mean ± S.D.) ([1]; 2 mg Au/kg, p.o., Table 3): 7.50 ± 1.57 × 10^-5 /ml; PMN infiltration, result in words [1]: did not impair inflammatory cell infiltration
CCCNc1ccc(-c2nc3n(c2-c2ccncc2)CCS3)cc1 [Compound 2, 6-(4-(1-propylamino)phenyl)-5-(4-pyridyl)-2,3-dihydroimidazo[2,1-b]thiazole] | 23 | 7 | 
c1cc(N2CCCC2)ccc1-c1nc2n(c1-c1ccc(N3CCCC3)cc1)CCS2 [Compound 3, 5,6-bis(4-(1-pyrrolidinyl)phenyl)-2,3-dihydroimidazo[2,1-b] thiazole] | 44 | 0.1 | 
c1cc(N2CCCCC2)ccc1-c1nc2n(c1-c1ccc(N3CCCCC3)cc1)CCS2 [Compound 4, 5,6-bis(4-(1-piperidinyl)phenyl)-2,3-dihydroimidazo[2,1-b] thiazole] | 22 | 0.6 | 
c1cc(-c2c(-c3ccc4c(c3)OCO4)nc3n2CCS3)ccn1 [Compound 5] |  | 10 | 
CN(C)c1ccc(-c2nc3n(c2-c2ccc(F)cc2)CCS3)cc1 [Compound 6, 6-(4-dimethylaminophenyl)-5-(4-fluorophenyl)-2,3-dihydroimidazo[2,1-b]thiazole] | 48 | 0.6 | 
c1cc(-c2nc3n(c2-c2ccc4c(c2)OCO4)CCS3)ccn1 [Compound 7, 6-(4-pyridyl)-5-(3,4-methylenedioxyphenyl)-2,3-dihydroimidazo [2,1-b]thiazole] | 62 | 10 | 
Fc1ccc(-c2nc3n(c2-c2ccc(F)cc2)CCC3)cc1 [Compound 8] |  | 8 | inhibition in vivo at 50 mg/kg ([2]; po, 50 mg/kg p.o.): 40%
CCN(CC)c1ccc(-c2nc3n(c2-c2ccc(N(CC)CC)cc2)CCS3)cc1 [Compound 9, 5,6-bis(4-N,N-diethylaminophenyl)-2,3-dihydroimidazo [2,1-b]thiazole] |  | 0.16 | inhibition in vivo at 50 mg/kg ([2]; po, 50 mg/kg p.o.): 17%
CN(C)c1ccc(-c2c(-c3ccc(F)cc3)nc3n2CCS3)cc1 [Compound 10, 5-(4-Dimethylaminophenyl)-6-(4-fluorophenyl)-2,3-dihydroimidazo[2,1-b]-thiazole] | 7 | 1.5 | 
c1cc(-c2nc3n(c2-c2ccncc2)CCS3)ccn1 [Compound 11, 5,6-Bis(4-pyridyl)-2,3-dihydroimidazo(2,1-b) thiazole] | 29 | 33 | 
N#Cc1ccc(-c2nc3n(c2-c2ccc(C#N)cc2)CCS3)cc1 [Compound 13, 5,6-bis(4-cyanophenyl)-2,3-dihydroimidazo[2,1-b]thiazole] | 50 | 15 | 
COc1ccc(-c2nc3n(c2-c2ccc(F)cc2)CCS3)cc1 [Compound 14] | 64 | 0.6 | 
FC(F)(F)c1ccc(-c2nc3n(c2-c2ccc(C(F)(F)F)cc2)CCS3)cc1 [Compound 15] |  | 10 | 
c1cc2c(cc1-c1nc3n(c1-c1ccc4c(c1)OCO4)CCS3)OCO2 [Compound 16] |  | 1.5 | inhibition in vivo at 50 mg/kg ([2]; po, 50 mg/kg p.o.): 32%
Fc1ccc(-c2nc3n(c2-c2ccc(F)cc2)CCS3)cc1 [Compound 19] |  | 5 | inhibition in vivo at 50 mg/kg ([2]; po, 50 mg/kg p.o.): 34%
COc1ccc(-c2nc3n(c2-c2ccc(OC)cc2)CCCS3)cc1 [Compound 20] | 47 | 5.6 | 
COc1ccc(-c2nc3n(c2-c2ccc(OC)cc2)CCS3)cc1 [Compound 21] |  | 2.8 | 
COc1ccc(-c2nc3n(c2-c2ccc(OC)cc2)CCC3)cc1 [Compound 22] | 15 |  | 
Fc1ccc(-c2nc3n(c2-c2ccccn2)CCS3)cc1 [Compound 23, 5-(2-pyridinyl)-6-(4-fluorophenyl)-2,3-dihydroimidazo[2,1-b]thiazole] | 65 | 42 | 
Fc1ccc(-c2c(-c3ccccn3)nc3n2CCS3)cc1 [Compound 24, 5-(4-fluorophenyl)-6-(2-pyridinyl)-2,3-dihydroimidazo[2,1-b]thiazole] | 69 | 20 | 
c1cc(-c2c(-c3ccc(N4CCCC4)cc3)nc3n2CCS3)ccn1 [Compound 25, 5-(4-pyridyl)-6-(4-(pyrrolidin-1-yl)-phenyl)-2,3-dihydroimidazo[2,1-b]thiazole] |  | 0.5 | inhibition in vivo at 50 mg/kg ([2]; po, 50 mg/kg p.o.): 17%
[O-][S+]1CCn2c1nc(-c1ccc(F)cc1)c2-c1ccc(F)cc1 (stereo not shown) [Compound 30] |  | 60 | 
O=S1(=O)CCn2c1nc(-c1ccc(F)cc1)c2-c1ccc(F)cc1 [Compound 31] |  | < 33 | 
CSc1ccc(-c2nc3n(c2-c2ccc(SC)cc2)CCS3)cc1 [Compound 32] |  | > 100 | 
CC(=O)Nc1ccc(-c2nc3n(c2-c2ccncc2)CCS3)cc1 [Compound 38, 5-(4-pyridyl)-6-(4-acetamidophenyl)-2,3-dihydroimidazo (2,1-b)thiazole] |  | 30 | 
CC(C)Cc1ccc(C(C)C(=O)O)cc1 (stereo not shown) [Ibuprofen, reference compound] |  |  | Mouse ear edema, result in words ([2]; mouse, in vivo): did not exhibit detectable anti-inflammatory activity
c1ccc([C@H]2CN3CCSC3=N2)cc1 [Levamisole] |  |  | PMN infiltration, result in words [1]: did not impair inflammatory cell infiltration
CC(Cc1ccc(O)c(O)c1)C(C)Cc1ccc(O)c(O)c1 (stereo not shown) [NDGA, Nordihydroguaiaretic acid] |  |  | PMN infiltration, result in words [1]: effective
COc1ccc2cc([C@H](C)C(=O)O)ccc2c1 [Naproxen] |  |  | inhibition at 50 mg/kg ([4]; Experiment 1): 0%; inhibition at 50 mg/kg ([4]; Experiment 2): 15%; inhibition at 50 mg/kg ([4]; Experiment 3): 0%; LTB4 production ex vivo, result in words ([4]; mouse, in vivo): inactive
